# Patent publication US5234948A, “Optically active alkylenedioxybenzene derivatives and their use in therapy” (Mitsubishi Kasei Corporation, priority 1990, dated 1993)
# Counter-ions that a name gives are not always drawn.
# What was measured:
# 5-HT1A receptor [1] = target: T1, 5-HT1A receptor (Rattus norvegicus, UniProt P19327); test: biochemical; assay type: binding; conditions: displacement of [3H]8-OH-DPAT, rat brain membranes, 37° C., 10 minutes; test compounds as HCl salt
# T1 sequence (P19327 1-422): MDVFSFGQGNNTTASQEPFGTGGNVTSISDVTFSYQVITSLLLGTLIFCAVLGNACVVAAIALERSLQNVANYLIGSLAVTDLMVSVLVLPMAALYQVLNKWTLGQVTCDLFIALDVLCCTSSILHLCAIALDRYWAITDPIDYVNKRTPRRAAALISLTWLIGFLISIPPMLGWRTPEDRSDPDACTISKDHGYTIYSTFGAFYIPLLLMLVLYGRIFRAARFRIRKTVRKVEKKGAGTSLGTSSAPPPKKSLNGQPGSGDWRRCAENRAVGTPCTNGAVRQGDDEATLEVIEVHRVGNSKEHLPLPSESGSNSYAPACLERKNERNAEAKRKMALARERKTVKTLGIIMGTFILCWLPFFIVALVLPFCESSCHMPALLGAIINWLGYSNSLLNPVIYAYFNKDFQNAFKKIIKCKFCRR
# Protocol: Thus, rat brain was homogenized in Tris-HCl buffer and centrifuged. The resultant precipitates were homogenized again with Tris-HCl buffer and incubated at 37° C. for ten minutes. The mixture was centrifuged again, and the precipitates were homogenized with Tris-HCl buffer containing pergiline, calcium chloride, and ascorbic acid to obtain a membrane preparation for use in the binding assay.
# The preparation was mixed with [3H]8-OH-DPAT and a compound to be tested, and incubated at 37° C. for 10 minutes, filtered with whatman GF/B filter. Radioactivity remaining on the filter was measured by […].
# Affinity of the test compound to 5-HT1A receptor is represented by Ki value which is calculated from the following equation. [formula] wherein [L] is the concentration of [3H]8-OH-DPAT, Kd is a dissociation constant, and IC50 is the concentration of test compound requisite for attaining 50% inhibition of the binding of [3H]8-OH-DPAT.
# rats = test: conflict test (modified method of Vogel et al), anxiolytic activity; assay type: in vivo, rat; conditions: oral, 1 hour after administration, control 7.4
# Protocol: The conflict test was performed to examine the anxiolytic activity of compounds. A modification of the method of Vogel et al (Psychopharmacology21, 1, 1971) was used.
# Rats were deprived of water for 38 hours prior to the first training session (unpunished session). Each animal was placed in a conflict test apparatus. The rat was allowed to drink water through a spout, and the frequency of drinking action within 10 min was counted. Only rats making more than 100 licks progressed to a further 24 hr deprivation of water. Twenty four hours after the unpunished session, the rat was placed again in the test box. The second session (pre-drug punished session) consisting of a 3 min period started when the rat completed 20 licks and received the first electric shock. After every 20 unpunished licks, subsequent licking was punished. Only rats in which the number of receiving the shocks was reduced by at most 25 times during the pre-drug punished session were included in the test.
# The compound to be tested was orally administered to each rat. One hour after the administration, the rat was re-placed in the apparatus to be examined. The number of shocks was counted for three minutes. Buspirone, an anxioselective anxiolytic drug, was used as a positive control.
# The anti-conflict activity was evaluated to be positive when the number of shocks in the treated group was higher than that in the control group.
# 5-HT1A receptor [2] = conditions: in words, literature; cited from earlier work
# male and female rats = test: Acute Toxicity, oral, 7-days observation; assay type: in vivo, rat; conditions: p.o., suspended in 0.5% CMC-Na
# Protocol: The compounds (I) suspended in 0.5% CMC-Na aqueous solution were orally administered to male and female rats, and 7-days observation was conducted. ALD (approximate lethal dose) value for Compound No. 1 was 100 mg/kg (p.o.).
SMILES,Ki (5-HT1A receptor [1]),further results
c1ccc2c(c1)OCC(CNCCCOc1ccc3c(c1)OCO3)O2 (racemic) [No. 1 (dl)],1.6 nM,Frequency of receiving the shocks (rats; 0.25 mg/kg): 20.9 times/3 minutes
"c1ccc2c(c1)OC[C@H](CNCCCCCOc1ccc3c(c1)OCO3)O2 [Compound No. 7, 5-[5-{(2S)-(1,4-Benzodioxan-2-ylmethyl) -amino}pentyloxy]-1,3-benzodioxol hydrochloride]",1.84 nM,–
"O=C1c2ccccc2S(=O)(=O)N1CCCCN1CCN(c2ncccn2)CC1 [Ipsapirone, 2-{4-[4-(2-pyrimidinyl)-1-piperazynyl]butyl}-1,2-benzisothiazol-3-(2H)one-1,1-dioxydehydrochloride]",–,5-HT1A receptor binding (known compounds) (5-HT1A receptor [2]): 5-HT1A receptor-binding compounds
c1ccc2c(c1)OCC(CNCCCOc1cccc3c1OCO3)O2 (racemic) [No. 13 (dl)],9.7 nM,–
"c1ccc2c(c1)OC[C@H](CNCCCCOc1ccc3c(c1)OCO3)O2 [Compound No. 4, 5-[4-{(2S)-(1,4-Benzodioxan-2-ylmethyl) -amino}butoxy]-1,3-benzodioxol hydrochloride]",0.91 nM,–
"c1ccc2c(c1)OC[C@H](CNCCCOc1ccc3c(c1)OCO3)O2 [Compound No. 1, 5-[3-{(2S)-(1,4-Benzodioxan-2-ylmethyl) -amino}propoxy[-1,3-benzodioxol hydrochloride]",0.29 nM,ALD (approximate lethal dose) (male and female rats): 100 mg/kg; Frequency of receiving the shocks (rats; 0.05 mg/kg): 20.1 times/3 minutes
"O=C1C2C3CCC(C3)C2C(=O)N1CCCCN1CCN(c2ncccn2)CC1 (stereo not drawn) [SM-3997, 3aα, 4β, 7β, 7aβ-hexahydro-2-{4-[4-(2-pyrimidinyl)-1-piperazinyl]butyl}-4,7-methan-1H-isoindol-1,3(2H)dione dihydrogen citrate]",–,5-HT1A receptor binding (known compounds) (5-HT1A receptor [2]): 5-HT1A receptor-binding compounds
c1ccc2c(c1)OC[C@@H](CNCCCOc1ccc3c(c1)OCO3)O2 [No. 1 (R)],3.9 nM,Frequency of receiving the shocks (rats; 0.5 mg/kg): 12.5 times/3 minutes
c1ccc2c(c1)OCC(CNCCCOc1ccc3c(c1)OCCCO3)O2 (racemic) [No. 3 (dl)],7.6 nM,–
c1ccc2c(c1)OCC(CNCCCCOc1ccc3c(c1)OCCCO3)O2 (racemic) [No. 6 (dl)],2.9 nM,–
c1ccc2c(c1)OC[C@H](CNCCCOc1ccc3c(c1)OCCCO3)O2 [compound 3],–,Frequency of receiving the shocks (rats; 0.2 mg/kg): 18.0 times/3 minutes
c1ccc2c(c1)OC[C@H](CNCCCOc1ccc3c(c1)OCCO3)O2 [compound 2],–,Frequency of receiving the shocks (rats; 0.2 mg/kg): 21.8 times/3 minutes
c1ccc2c(c1)OCC(CNCCCOc1ccc3c(c1)OCCO3)O2 (racemic) [No. 2 (dl)],2.5 nM,–
c1ccc2c(c1)OCC(CNCCCCCOc1ccc3c(c1)OCO3)O2 (racemic) [No. 7 (dl)],4.09 nM,–
